Tests used:
Assay type in all cases: cell-based
[1] = test system: SCC-25 cells; assay: [3H]-thymidine proliferation assay with SCC-25 cells; conditions: together with calcitriol, three days, [3H]-thymidine 6 h
Description: 1. Preparation of Cell Suspension • When SCC-25 cells were 70-80% confluent, aspirated media. Washed the cells with 1×PBS. Trypsinized with trypsin-EDTA from the plate, collected cells from the tissue culture flask, centrifuged (500×g, 5 min) and resuspended in media.
2. Cell Plating. • Counted the cells and adjusted the cell density to 10,000/ml. Added 200 μl per well in a 96 well plate. Incubated plate for 24 h at 37° C. in a humidified atmosphere plus 5% CO2. Aspirated used media and replaced with 150 μl per well with media.
3. Compound Addition. • Added 25 μl of 1α,25(OH)2D3 (final concentration 10^−6M, 10^−7 M, 10^−8 M, M, 10^−10 M, 10^−11 M) into each designated well. Added 25 μl of substrate (final concentration 10^−7 M, 5×10^−8 M, 10^−8 M or 10^−9 M) into each designated well. Incubated plates for 3 days at 37° C. in a humidified atmosphere plus 5% CO2.
4. ^3H-Thymidine Incorporation. • Added ^3H-thymidine at 0.02 μCi per well and incubated at 37° C. in a humidified atmosphere plus 5% CO2 for 6 h.
5. Plate Harvesting. • Aspirated all media and washed cells with 1×PBS. Trypsinized cells for 30 min at 37° C. in a humidified atmosphere plus 5% CO2. Harvested cells onto a 96 well filter plate (Millipore) using a Tomtec Cell Harvestor, according to manufacturers instructions.
6. Scintillation Counting. • Added 25 μl of scintillation fluid per well. Counted the plate using a scintillation counter.

[2] = target: T1, CYP24 (Homo sapiens, UniProt Q07973); assay: CYP24 enzyme assay (induced HPK1A-ras cells); conditions: HPK1A-ras cells induced with 1,25(OH)2D3; [3H]-1,25(OH)2D3 substrate, 2 hour
T1 construct: expressed in transfected cells
T1 sequence (Q07973 36-514): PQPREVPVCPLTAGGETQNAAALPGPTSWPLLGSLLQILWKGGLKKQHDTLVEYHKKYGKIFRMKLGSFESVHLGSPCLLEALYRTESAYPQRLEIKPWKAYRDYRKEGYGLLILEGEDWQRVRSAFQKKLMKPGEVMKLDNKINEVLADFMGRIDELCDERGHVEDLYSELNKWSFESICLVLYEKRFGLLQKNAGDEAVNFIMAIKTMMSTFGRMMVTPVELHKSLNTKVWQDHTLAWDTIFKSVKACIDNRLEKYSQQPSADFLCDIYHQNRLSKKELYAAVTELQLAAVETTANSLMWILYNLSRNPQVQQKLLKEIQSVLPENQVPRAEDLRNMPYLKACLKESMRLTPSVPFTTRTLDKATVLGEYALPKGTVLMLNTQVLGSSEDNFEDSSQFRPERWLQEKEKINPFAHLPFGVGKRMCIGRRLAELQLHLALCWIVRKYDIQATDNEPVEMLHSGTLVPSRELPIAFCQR
Description: 1.25(OH)2D3 10^−5 M (Sigma, St. Louis, Mo.);
Preparation of 10^−5 M working solution is as follows:
Dissolve 1 mg of 1,25(OH)2D3 into 480 μl of isopropanol to make 5×10^−3 M stock solution. Store at −70° C. until needed. Aliquot 1 μl of 1.25(OH)2D3 5×10^−3 M stock solution to 499 μl of isopropanol to make 1.25(OH)2D3 10^−5 working solution. Store at −20° C. until needed. […] Induction of HPKIA-ras cells (The day before assay) • When the HPK1A-ras cells were 80-90% confluent, added 1 μL 10^−5 M 1.25(OH)2D3 to 1 mL medium in the plate (final concentration is 10^−8 M). • 2. Preparation of cell suspension • After 18 to 20 hours induction, removed the medium and washed the cell twice with PBS. Then tripsinized the cells from plate, centrifuged (2,000 rpm, 5 min) and suspended cells pellet in DMEM medium+1% BSA. • Counted the cells and adjusted cells density to 250,000/150 μL, added 150 μL cell suspension to each well in 48-well plate (including 3 wells as a no cell control, and 3 well cells without drug or inhibitor as controls). • 3. […] Kept the plate in 37° C. for 10 min. • 4. Preparation of substrate • For each ml required, added 972 μl of DMEM+1% BSA medium, 20 μl of 3H-1,25(OH)2D3, and 8 μl of 100 nM DPPD to a tube and vortexed. • 5. Incubation • Added 25 μL substrate to each well, incubated the plate at 37° C. for 2 hour. • Added 25 μL substrate to counting plate (2 well) as a total count. • 6. Lipid Extraction and Counting • Added 500 μL methanol to each well to stop the reaction, transferred them to tube. • Added 250 μL dichloromethane and vortex. • Added 250 μL dichloromethane and […] saturated KCI, and vortex. • Centrifuged at 4000 rpm for 5 min. • Transferred 100 μL of aqueous phase (upper phase) to counting plastic counting plate. Added 600 μL of scintillation fluid to each well. Counted the plate in scintillation counter. • 7. Calculation Enzyme Activity • CPM of cell control after subtraction of CPM of non-cell control (NCC) was as 100% enzyme activity.
• Dilution of test compounds • Stock 10^−3 M

[3] = target: T1, CYP24; assay: CYP24 enzyme assay (stable cell line V79-CYP24 cells); conditions: [3H-1β]-1α,25(OH)2D3 20 nM, 2 hours
Description: 1. Preparation of Cell Suspension • On the day of the assay, washed the monolayer of V79-CYP24 cells once with 1×PBS buffer and then trypsinize for 5 min at room temperature (approx. 22° C.). Added 1×PBS. Collected cells into tube, centrifuged cells (500×g, 5 min) and resuspended in DMEM+1% BSA media.
2. Cell Plating • Added 150 μl of cell suspension to appropriately labelled wells of a 48-well plate. Incubated plate for 30 minutes at 37° C. in a humidified atmosphere containing 5% CO2 for adherence of cells to wells.
3. Compound Addition • Added 25 μl of inhibitor (10^−6 to 10^−9 M) and then after 10 min added 25 μl of substrate [^3H-1β]-1α,25(OH)2D3 (20 nM) for 2 hours at 37° C. in a humidified atmosphere containing 5% CO2. Both inhibitor and substrate were prepared in DMEM with 1% BSA media in the absence and presence of 100 μM DPPD.
4. Lipid Extraction and Counting • Added 500 μL of methanol to stop the reaction. Transferred to tube. Added 250 μl of dichloromethane and vortexed. Added 250 μl of dichloromethane and 250 μl of saturated KCL and vortexed. Centrifuged at 4000 rpm for 5 min. Triplicate 100 μl aliquots of aqueous fraction were mixed with 600 μl of scintillation fluid and the radioactivity was measured using a scintillation counter. All values were normalized for background. (iii) Results.

IC50 [2]: 33 nM | IC50 [3]: 20 nM
Compound: C=C1/C(=C\C=C2/CCC[C@]3(C)[C@@H]([C@H](C)CCS(=N)(=O)c4ccccc4)CC[C@@H]23)C[C@@H](O)C[C@@H]1O (single isomer, unassigned) [I(c)]
inhibition of proliferation of SCC-25 cells [1]: act to inhibit the proliferation

— patent US7973024B2, “24-sulfoximine vitamin D3 compounds” (Cyctochroma Inc., priority 2002, dated 2011)
